Test results as given in article PMC9315260, “Diarylamine-Guided Carboxamide Derivatives: Synthesis, Biological Evaluation, and Potential Mechanism of Action” (Frontiers in Chemistry, 2022).

Columns and labels:
[1] = tested on: A875 (human melanoma cell line); test: MTT in vitro cytotoxicity assay, A875; type: cell-based; conditions: for IC50: mean ± S.D.; for inhibition at 100 µM: A875, at 100 µM, read-out: Cell growth inhibition (%) A875
Method: (§1) The lead molecules A2 and all newly prepared diarylamine derivatives B1-13 and C1-11 were evaluated for their in vitro cytotoxic effects against SGC-7901, A875, HepG2 and MARC145 cell lines by the classical MTT [3-(4,5-dimethylthiazol-2-yl)-2,5-diphenyl tetrazolium bromide] assay ([Alley et al., 1988]; [Ke et al., 2012]; [Shi et al., 2012]; [Yu et al., 2015]; [Ke et al., 2019]; [Xu et al., 2019]; [Huang et al., 2021]) using 5-FU (5-Fluorouracil) as a control.
(§2) The cytotoxicity of target compounds was determined with MTT assay ([Alley et al., 1988]; [Ke et al., 2012]; [Shi et al., 2012]; [Yu et al., 2015]; [Ke et al., 2019]; [Xu et al., 2019]; [Huang et al., 2021]). SGC-7901, A875, HepG2 and MARC145 cell lines were obtained from Hubei Biopesticide Engineering Research Centre. All data of the experiment were analyzed with SPSS software, and all assay were performed in triplicate on three independent experiments, and measurement data were expressed as the mean ± S.D.
(§3) The in vitro cytotoxicity of the synthesized compounds against different cell lines (SGC-7901, A875, HepG2 and MARC145) was measured with MTT assay. All the data of the experiment were analyzed with SPSS software, and the 50% inhibitory concentrations (IC50) of each compound for the different cell lines were determined. A control was run for each test, and all assays were performed in triplicate on three independent experiments, and measurement data were expressed as the mean ± S.D.

[2] = MTT in vitro cytotoxicity assay, MARC145; type: cell-based, African green monkey; conditions: African green monkey, MARC145 cells (kidney cell line, subclone of MA-104), MTT, mean ± S.D.
Method: as §1, §2, §3

[3] = tested on: HepG2 (human hepatocellular liver carcinoma cell line); test: MTT in vitro cytotoxicity assay, HepG2; type: cell-based; conditions: for IC50: mean ± S.D.; for inhibition at 100 µM: HepG2, at 100 µM, read-out: Cell growth inhibition (%) HepG2
Method: as §1, §2, §3

[4] = tested on: SGC-7901 (human gastric cancer cell line); test: MTT in vitro cytotoxicity assay, SGC-7901; type: cell-based; conditions: for IC50: mean ± S.D.; for inhibition at 100 µM: SGC-7901, at 100 µM, read-out: Cell growth inhibition (%) SGC-7901
Method: as §1, §2, §3

[5] = tested on: MARC145 (subclone of African green monkey kidney cell line MA-104); test: MTT in vitro cytotoxicity assay, MARC145; type: cell-based; conditions: Chlorocebus sabaeus, MARC145; at 100 µM; read-out: Cell growth inhibition (%) MARC145
Method: as §1, §2, §3

Row | SMILES | melting point [°C] | IC50 ([1]; A875, Table 1, MTT) [µM] | IC50 ([2]; Table 1) [µM] | IC50 ([3]; HepG2, Table 1, MTT) [µM] | IC50 ([4]; SGC-7901, Table 1, MTT) [µM] | IC50 ([1]; A875, Table 3, MTT) [µM] | inhibition at 100 µM [1] [%] | inhibition at 100 µM [5] [%] | IC50 ([2]; Table 3) [µM] | IC50 ([3]; HepG2, Table 3, MTT) [µM] | inhibition at 100 µM [3] [%] | IC50 ([4]; SGC-7901, Table 3, MTT) [µM] | inhibition at 100 µM [4] [%]
1 | NC(=O)c1ccccc1NC(=O)c1ccccc1Nc1cccc(C(F)(F)F)c1 [B1, N-(2-Carbamoylphenyl)-2-((3-(trifluoromethyl)phenyl)amino)benzamide] | 136 to 137 | > 100 | > 100 | > 100 | > 100 | – | – | – | – | – | – | – | –
2 | CNC(=O)c1ccccc1NC(=O)c1ccccc1Nc1cccc(C(F)(F)F)c1 [B2, N-Methyl-2-(2-((3-(trifluoromethyl)phenyl)amino)benzamido)benzamide] | – | > 96 | > 96 | > 96 | > 96 | – | – | – | – | – | – | – | –
3 | NC(=O)c1cc(F)cc(Br)c1NC(=O)c1ccccc1Nc1cccc(C(F)(F)F)c1 [B3, 3-Bromo-5-fluoro-2-(2-((3-(trifluoromethyl)phenyl)amino)benzamido)benzamide] | 198 to 199 | > 80 | 38 ± 0.81 | > 80 | 22.5 ± 4.04 | – | – | – | – | – | – | – | –
4 | CNC(=O)c1cc(F)cc(Br)c1NC(=O)c1ccccc1Nc1cccc(C(F)(F)F)c1 [B4, 3-Bromo-5-fluoro-N-methyl-2-(2-((3-(trifluoromethyl)phenyl)amino)benzamido)benzamide] | 189 to 190 | > 78 | > 78 | > 78 | > 78 | – | – | – | – | – | – | – | –
5 | Cc1cccc(C(N)=O)c1NC(=O)c1ccccc1Nc1cccc(C(F)(F)F)c1 [B5, N-(2-Carbamoyl-6-methylphenyl)-2-((3-(trifluoromethyl)phenyl)amino)benzamide] | – | > 97 | > 97 | > 97 | > 97 | – | – | – | – | – | – | – | –
6 | CNC(=O)c1cccc(C)c1NC(=O)c1ccccc1Nc1cccc(C(F)(F)F)c1 [B6, N,3-Dimethyl-2-(2-((3-(trifluoromethyl)phenyl)amino)benzamido)benzamide] | – | > 94 | > 94 | > 94 | > 94 | – | – | – | – | – | – | – | –
7 | NC(=O)c1ccc(Cl)cc1NC(=O)c1ccccc1Nc1cccc(C(F)(F)F)c1 [B7, N-(2-Carbamoyl-5-chlorophenyl)-2-((3-(trifluoromethyl)phenyl)amino)benzamide] | 176 to 177 | > 92 | > 92 | > 92 | > 92 | – | – | – | – | – | – | – | –
8 | CNC(=O)c1ccc(Cl)cc1NC(=O)c1ccccc1Nc1cccc(C(F)(F)F)c1 [B8, 4-Chloro-N-methyl-2-(2-((3-(trifluoromethyl)phenyl)amino)benzamido)benzamide] | 152 to 153 | > 89 | > 89 | > 89 | > 89 | – | – | – | – | – | – | – | –
9 | NC(=O)c1cc(Cl)ccc1NC(=O)c1ccccc1Nc1cccc(C(F)(F)F)c1 [B9, N-(2-Carbamoyl-4-chlorophenyl) -2-((3-(trifluoromethyl)phenyl)amino)benzamide] | – | > 92 | > 92 | > 92 | > 92 | – | – | – | – | – | – | – | –
10 | CNC(=O)c1cc(Cl)ccc1NC(=O)c1ccccc1Nc1cccc(C(F)(F)F)c1 [B10, 5-Chloro-N-methyl-2-(2-((3-(trifluoromethyl)phenyl)amino)benzamido)benzamide] | 190 to 191 | > 89 | 38 ± 9.84 | 49.9 ± 9.26 | 39.4 ± 8.96 | – | – | – | – | – | – | – | –
11 | NC(=O)c1c(Cl)cccc1NC(=O)c1ccccc1Nc1cccc(C(F)(F)F)c1 [B11, N-(2-Carbamoyl-3-chlorophenyl)-2-((3-(trifluoromethyl)phenyl)amino)benzamide] | 194 to 195 | > 92 | > 92 | > 92 | > 92 | – | – | – | – | – | – | – | –
12 | CNC(=O)c1c(Cl)cccc1NC(=O)c1ccccc1Nc1cccc(C(F)(F)F)c1 [B12, 2-Chloro-N-methyl-6-(2-((3-(trifluoromethyl)phenyl)amino)benzamido)benzamide] | 178 to 179 | > 89 | > 89 | > 89 | > 89 | – | – | – | – | – | – | – | –
13 | CNC(=O)c1cc(Cl)cc(Cl)c1NC(=O)c1ccccc1Nc1cccc(C(F)(F)F)c1 [B13, 3,5-Dichloro-N-methyl-2-(2-((3-(trifluoromethyl)phenyl)amino)benzamido)benzamide] | 180 to 181 | > 83 | > 83 | > 83 | > 83 | – | – | – | – | – | – | – | –
14 | CC(C)c1ccc(NC(=O)c2ccccc2Nc2cccc(C(F)(F)F)c2)cc1 [C1, N-(4-Isopropylphenyl)-2-((3-(trifluoromethyl)phenyl)amino)benzamide] | 74 to 75 | – | – | – | – | > 100 | 43.1 ± 2 | 7.5 ± 2.3 | > 100 | > 100 | 42.7 ± 3.1 | 47 ± 9.74 | 72.3 ± 3.1
15 | CC(C)c1ccc(NC(=O)c2cccnc2Nc2cccc(C(F)(F)F)c2)cc1 [C2, N-(4-Isopropylphenyl)-2-((3-(trifluoromethyl)phenyl)amino)nicotinamide] | 161 to 162 | – | – | – | – | > 100 | 42 ± 2.5 | 15.8 ± 1.9 | > 100 | > 100 | 13.1 ± 2.3 | > 100 | 26.9 ± 1.8
16 | O=C(Nc1ccccc1C(F)(F)F)c1ccccc1Nc1cccc(C(F)(F)F)c1 [C3, N-(2-(Trifluoromethyl)phenyl)-2-((3-(trifluoromethyl)phenyl)amino)benzamide] | 82 to 83 | – | – | – | – | > 94 | 56.4 ± 2.5 | 23.5 ± 2.1 | > 94 | 24.2 ± 3.21 | 88.5 ± 3.2 | 29.7 ± 4.03 | 78.6 ± 2.9
17 | O=C(Nc1ccccc1C(F)(F)F)c1cccnc1Nc1cccc(C(F)(F)F)c1 [C4, N-(2-(Trifluoromethyl)phenyl)-2-((3-(trifluoromethyl)phenyl)amino)nicotinamide] | 139 to 140 | – | – | – | – | > 94 | 5.2 ± 1.5 | 0 | > 94 | > 94 | 3.1 ± 1.2 | > 94 | 4.5 ± 0.4
18 | O=C(Nc1ccc(C(F)(F)F)cc1)c1cccnc1Nc1cccc(C(F)(F)F)c1 [C8, N-(4-(Trifluoromethyl)phenyl)-2-((3-(trifluoromethyl)phenyl)amino)nicotinamide] | – | – | – | – | – | 55.6 ± 6.73 | 56.5 ± 3.1 | 65.8 ± 2.6 | 57.7 ± 8.87 | > 94 | 42.4 ± 2.6 | > 94 | 51.2 ± 3.5
